Source: patent US12343350B2, “Istaroxime-containing intravenous formulation for the treatment of acute heart failure (AHF)” (Windtree Therapeutics, Inc., priority 2019, dated 2025)

Test system: patients with Acute Decompensated Heart Failure
Experiment: Clinical study of istaroxime 24 h i.v. infusion in Acute Decompensated Heart Failure, echocardiography
Assay type: in vivo, human
Protocol: Echocardiography was performed on patients according to international standards (see, for example, Lang R M et al., J Am Soc Echocardiogr 2005; 18(12):1440-63; Nagueh S F et al., Eur J Echocardiogr 2009; 10(2):165-93; Evangelista A et al., Eur J Echocardiogr 2008; 9(4):438-48). Echocardiography was performed by expert physicians or sonographers at the sites. Echocardiography was done at screening, baseline, 6 hours after infusion start, 24 hours after infusion start (just before the end of infusion), and 48 hours after infusion start.
The following parameters were recorded for each patient at each timepoint and centrally measured by the CoreLab: • 1. Cardiac dimension measures: • a. Left ventricle end diastolic diameter (EDD): measured with M-mode echocardiography at the level of mitral valve (MV) leaflets from parasternal long axis view (PLAX) (normal range [NR]: 42-59 mm males and 39-53 mm females); • b. Left ventricle end systolic diameter (ESD): measured with M-mode echocardiography at the level of mitral valve (MV) leaflets from PLAX (NR: 25-35 mm); • c. Left ventricle end diastolic volume (EDV): measured with M-mode echocardiography at the level of mitral valve (MV) leaflets from PLAX (NR: 67-155 mL males and 56-104 mL females); • d. Left ventricle end systolic volume (ESV): measured with M-mode echocardiography at the level of mitral valve (MV) leaflets from PLAX (NR: 22-58 mL males and 19-49 mL females); • e. Left atrium diameter (LAD): measured at end-ventricular systole with M-mode echocardiography from PLAX. (NR: 30-40 mm males and 27-38 mm females) • f. Left atrium area (LAA): measured from apical four chamber view ([…]); and • g. Left atrium volume (LAV): derived from area-length measured from apical four chamber view (NR: 18-58 mL males and 22-52 mL females). • 2. Left ventricle diastolic function parameters: • a. E wave: measured from mitral valve pulsed wave Doppler, is the peak velocity of early filling. […] A wave: measured from mitral valve pulsed wave Doppler is the peak velocity of late atrial filling. Not evaluable in patients with AF; • c. E wave deceleration time (EDT): measured from mitral valve pulsed wave Doppler represent the slope of the descending part of E wave; • d. E/A ratio: determines the type of diastolic filling pattern (normal E/A=1-2 and EDT=150-200 ms, abnormal relaxation E/A<1 and […], pseudonormal E/A=0.8-1.5; restrictive […] and EDT<160 ms). Not evaluable in patients with AF; • e. Ea: measured with tissue Doppler method at the lateral and septal side of the mitral annulus from apical four chamber view is the early diastolic velocity. The value has been calculated as the average between Ea lateral and Ea septal. ([…]) (see Nagueh S F et al., Eur J Echocardiogr. 2009; 10(2):165-93); • f. Aa: measured with tissue Doppler method at the lateral and septal side of the mitral annulus from apical four chamber view is the late atrial diastolic velocity. The value has been calculated as the average between Aa lateral and Aa septal. Not evaluable in patients with AF; and • g. E/Ea ratio: this is a derived measure from E and Ea value. This is highly correlated with left ventricle filling pressure and with prognosis in patients with HF. (NR: <13) (see Nagueh S F et al., supra). • 3. Left ventricle systolic function parameters: • a. Left ventricle ejection fraction (LVEF): measured with Simpson biplane method according to international recommendations from apical four chamber view and apical two chamber view. ([…]) (see Lang R M et al., J Am Soc Echocardiogr. 2005; 18(12):1440-63); and • b. Sa: measured with tissue Doppler method at the lateral and septal side of the mitral annulus from apical four chamber view. The value has been calculated as the average between Sa lateral and Sa septal. […] Overall cardiac contraction parameters: • a. […]

[1] = 0.5 μg/kg/min i.v. for 24 h, at 48 hours
[2] = 0.5 μg/kg/min i.v., at 6 hours of infusion
[3] = 0.5 μg/kg/min i.v., at 24 hours of infusion
[4] = 1.0 μg/kg/min i.v. for 24 h, at 48 hours
[5] = 1.0 μg/kg/min i.v., at 6 hours of infusion
[6] = 1.0 μg/kg/min i.v., at 24 hours of infusion

C[C@]12CCC(=NOCCN)C[C@@H]1C(=O)C[C@@H]1[C@@H]2CC[C@]2(C)C(=O)CC[C@@H]12 [Istaroxime, (3Z,5a)-3-[(2-aminoethoxy)imino]androstane-6,17-dione]
CI change [1]: 0.191 ± 0.426 l/min/m^2
CO change [1]: 0.350 ± 0.788 L/min
E/A ratio change [1]: −0.278 ± 1.043
E/e′ ratio change [1]: −2.570 ± 3.654
LVEF change [1]: 1.28 ± 3.693%
SV change [1]: 4.815 ± 9.832 ml/beat
SVI change [1]: 2.762 ± 5.603 ml/beat/m^2
Sa change [1]: 0.224 ± 0.811 cm/s
A wave change [2]: 1.76 ± 13.572 cm/s
CI change [2]: 0.209 ± 0.445 l/min/m2
CO change [2]: 0.385 ± 0.843 L/min
E wave change [2]: -3.33 ± 14.764 cm/s
E/A ratio change [2]: −0.286 ± 0.866
E/e′ ratio change [2]: −3.183 ± 5.628
EDT change [2]: 6.83 ± 47.921 ms
LAA change [2]: −0.33 ± 1.885 cm^2
LAV change [2]: -1.16 ± 11.265 mL
S Right V change [2]: 1.25 ± 2.185 cm/s
SV change [2]: 7.724 ± 11.752 ml/beat
SVI change [2]: 4.198 ± 6.218 ml/beat/m2
Sa Left V change [2]: 0.613 ± 1.035 cm/s
e′ change [2]: 0.61 ± 1.010 cm/s
A wave change [3]: 5.13 ± 10.990 cm/s
CI change [3]: 0.264 ± 0.369 l/min/m2
CO change [3]: 0.486 ± 0.696 L/min
E wave change [3]: -8.14 ± 17.640 cm/s
E/A ratio change [3]: −0.647 ± 0.812
E/e′ ratio change [3]: −4.548 ± 4.754
EDT change [3]: 12.88 ± 54.954 ms
LAA change [3]: −1.70 ± 2.463 cm^2
LAV change [3]: -7.94 ± 13.269 mL
S Right V change [3]: 1.10 ± 1.780 cm/s
SV change [3]: 9.725 ± 12.192 ml/beat
SVI change [3]: 5.333 ± 6.664 ml/beat/m2
Sa Left V change [3]: 0.679 ± 0.907 cm/s
e′ change [3]: 0.94 ± 1.089 cm/s
CI change [4]: 0.205 ± 0.407 l/min/m^2
CO change [4]: 0.368 ± 0.735 L/min
E/A ratio change [4]: −0.356 ± 0.967
E/e′ ratio change [4]: −2.218 ± 3.193
LVEF change [4]: 2.06 ± 4.975%
SV change [4]: 5.203 ± 8.078 ml/beat
SVI change [4]: 2.913 ± 4.572 ml/beat/m^2
Sa change [4]: 0.257 ± 0.771 cm/s
A wave change [5]: 5.56 ± 17.280 cm/s
CI change [5]: 0.140 ± 0.434 l/min/m2
CO change [5]: 0.228 ± 0.760 L/min
E wave change [5]: -9.13 ± 17.464 cm/s
E/A ratio change [5]: −0.317 ± 0.898
E/e′ ratio change [5]: −2.028 ± 3.652
EDT change [5]: 20.37 ± 50.849 ms
LAA change [5]: −0.84 ± 2.421 cm^2
LAV change [5]: -4.92 ± 14.390 mL
S Right V change [5]: 2.00 ± 1.907 cm/s
SV change [5]: 7.269 ± 8.134 ml/beat
SVI change [5]: 4.187 ± 4.641 ml/beat/m2
Sa Left V change [5]: 0.908 ± 0.936 cm/s
e′ change [5]: 0.01 ± 1.154 cm/s
A wave change [6]: 11.10 ± 16.498 cm/s
CI change [6]: 0.140 ± 0.443 l/min/m2
CO change [6]: 0.239 ± 0.786 L/min
E wave change [6]: -14.24 ± 24.416 cm/s
E/A ratio change [6]: −0.722 ± 1.068
E/e′ ratio change [6]: −3.191 ± 2.623
EDT change [6]: 9.79 ± 52.212 ms
LAA change [6]: −2.56 ± 2.972 cm^2
LAV change [6]: -13.81 ± 17.198 mL
S Right V change [6]: 1.55 ± 2.012 cm/s
SV change [6]: 9.339 ± 8.875 ml/beat
SVI change [6]: 5.318 ± 4.955 ml/beat/m2
Sa Left V change [6]: 0.803 ± 1.023 cm/s
e′ change [6]: 0.91 ± 1.792 cm/s
